Reference: patent US9849125B1, “Anti-overingestion dosage forms” (BANNER LIFE SCIENCES LLC, priority 2015, dated 2017)

Assay: In vitro dissolution of multiple capsules together in 0.1 N HCl (USP Apparatus II)
Assay type: physicochemical
Experimental: To test the anti-over ingestion properties of the pharmaceutical composition, multiple capsules were combined in a single reaction vessel and percentage of API released was measured. […] The in vitro dissolutions studies of dextromethorphan from Amberlite™ IRP69 from multiple capsules (1, 5, and 10) were carried out in 0.1 HCl with each 200 mg capsule containing 40 mg of the drug.
An additional experiment was performed to support the concept that the ceiling effect was not caused by solubility/sink limitation, but rather by retention by sequestering.
Next, the possibility to gain the same sequestering effect using physical blend of drug with resin instead of drug resinate complex was explored.

COc1ccc2c(c1)[C@]13CCCC[C@@H]1[C@H](C2)N(C)CC3 [dextromethorphan]
release from 1 capsule (40 mg) vs 10 capsules (400 mg) without resin: dose proportional release
